Assay: Anticancer human tumor 997537-175-T-J1-PDC patient-derived colon adenocarcinoma cell line growth inhibition [POLQ]
Settings: 997537-175-T-J1-PDC complex spheroid viability, combination with POLQ inhibitors; for IC50: curve of first compound; for viability, T/C: stronger effect = lower value
Summary of the method: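 Complex spheroid viability model combining PDC tumour cells with endothelial (HUVEC) and MSC stromal cells. Novobiocin, ART-558 or RP6685 were tested singly and in combination with standard and investigational anticancer drugs. Each was titrated in half-log steps from near clinical Cmax, or from 10 microM where Cmax was unknown.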
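Also: luminescence signal used as a surrogate for viable cells; spheroids exposed to drugs for seven days before readout.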

CCc1cc2c(N3CCc4c(cc(Cn5ccnc5)cc4-c4cn(C)nc4C(F)(F)F)C3=O)ccnc2c(OC)n1 + Nc1ccc(C#CCN(C(=O)Cc2ncc(C(F)(F)F)cc2C(F)(F)F)c2ccc(F)cc2)nn1
IC50 (second compound 0.0316 µM): > 10 µM | IC50 (second compound 0.1 µM): > 10 µM | IC50 (second compound 0.316 µM): > 10 µM | IC50 (second compound 1 µM): > 10 µM | IC50 (second compound 3.16 µM): > 10 µM | IC50 (second compound 10 µM): > 10 µM | viability, T/C (second compound 0.0316 µM, first compound 0.0316 µM): 89.5% | viability, T/C (second compound 0.0316 µM, first compound 0.1 µM): 110% | viability, T/C (second compound 0.0316 µM, first compound 0.316 µM): 94.7% | viability, T/C (second compound 0.0316 µM, first compound 1 µM): 97.2% | viability, T/C (second compound 0.0316 µM, first compound 3.16 µM): 85.9% | viability, T/C (second compound 0.0316 µM, first compound 10 µM): 57.8% | viability, T/C (second compound 0.1 µM, first compound 0.0316 µM): 94.6% | viability, T/C (second compound 0.1 µM, first compound 0.1 µM): 98.2% | viability, T/C (second compound 0.1 µM, first compound 0.316 µM): 87% | viability, T/C (second compound 0.1 µM, first compound 1 µM): 114% | viability, T/C (second compound 0.1 µM, first compound 3.16 µM): 82.1% | viability, T/C (second compound 0.1 µM, first compound 10 µM): 63.2% | viability, T/C (second compound 0.316 µM, first compound 0.0316 µM): 92.4% | viability, T/C (second compound 0.316 µM, first compound 0.1 µM): 93.5% | viability, T/C (second compound 0.316 µM, first compound 0.316 µM): 83.5% | viability, T/C (second compound 0.316 µM, first compound 1 µM): 94.6% | viability, T/C (second compound 0.316 µM, first compound 3.16 µM): 68.4% | viability, T/C (second compound 0.316 µM, first compound 10 µM): 61.8% | viability, T/C (second compound 1 µM, first compound 0.0316 µM): 103% | viability, T/C (second compound 1 µM, first compound 0.1 µM): 104% | viability, T/C (second compound 1 µM, first compound 0.316 µM): 97.3% | viability, T/C (second compound 1 µM, first compound 1 µM): 77% | viability, T/C (second compound 1 µM, first compound 3.16 µM): 77.4% | viability, T/C (second compound 1 µM, first compound 10 µM): 86.9% | viability, T/C (second compound 3.16 µM, first compound 0.0316 µM): 97% | viability, T/C (second compound 3.16 µM, first compound 0.1 µM): 76.5% | viability, T/C (second compound 3.16 µM, first compound 0.316 µM): 90.5% | viability, T/C (second compound 3.16 µM, first compound 1 µM): 91.2% | viability, T/C (second compound 3.16 µM, first compound 3.16 µM): 71.6% | viability, T/C (second compound 3.16 µM, first compound 10 µM): 64.1% | viability, T/C (second compound 10 µM, first compound 0.0316 µM): 97.4% | viability, T/C (second compound 10 µM, first compound 0.1 µM): 96.2% | viability, T/C (second compound 10 µM, first compound 0.316 µM): 101% | viability, T/C (second compound 10 µM, first compound 1 µM): 91% | viability, T/C (second compound 10 µM, first compound 3.16 µM): 79.5% | viability, T/C (second compound 10 µM, first compound 10 µM): 75.5%

Source: PubChem BioAssay AID1963825 (Molecular Pharmacology Branch, DTP, NCI, 2024)
